Experimental data as given in patent US6642392B1 (priority 1997, dated 2003).
Where two headings read alike, the source gives them in different places.

Columns and labels:
Assay type in all cases: in vivo
Botrytis cinerea = test: Test E: gray mold, preventive spray on cucumber seedlings; conditions: for Test E disease control rating: gray mold on cucumber; for Test E disease control rating (100 = 100% disease control, 0 = no disease control): cucumber seedlings sprayed to run-off, inoculated the following day, rating relative to controls, unmarked compounds (standard test rate)
In short: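 Preventive spray on cucumber seedlings used a suspension (3% acetone, 250 ppm Trem 014), applied to run-off one day before inoculation with Botrytis cinerea spores. Plants were held 48 h at 20° C in saturated air, then 5 days at 20° C. Percent disease control was scored relative to untreated plants.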

Phytophthora infestans = conditions: for Test D disease control rating: tomato late blight; for Test D disease control rating (100 = 100% disease control, 0 = no disease control): tomato seedlings sprayed to run-off, inoculated the following day, rating relative to controls, unmarked compounds (standard test rate)
Puccinia recondita = test: Test B: wheat leaf rust, preventive spray on wheat seedlings; conditions: for Test B disease control rating: wheat leaf rust; for Test B disease control rating (100 = 100% disease control, 0 = no disease control): wheat seedlings sprayed to run-off, inoculated the following day, rating relative to controls, unmarked compounds (standard test rate)
In short: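 Preventive test: P. recondita spores were applied one day after a run-off spray of compound suspension on wheat seedlings. Plants had 24 h at 20 °C in saturated air plus 6 days in a 20 °C growth chamber. Scoring is % disease control (100 = full) relative to controls.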

[1] = test system: Eiysiphe graminis f. sp. tritici; test: Test A: wheat powdery mildew, preventive spray on wheat seedlings; conditions: for Test A disease control rating: wheat powdery mildew; for Test A disease control rating (100 = 100% disease control, 0 = no disease control): wheat seedlings sprayed to run-off, inoculated the following day, rating relative to controls, unmarked compounds (standard test rate)
In short: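 Preventive test: seedlings inoculated with powdery mildew spores one day after run-off spraying of a suspension. Ratings after 7 days in a 20° C growth chamber express percent disease control versus controls.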

Pyricularia oryzae = conditions: for Test C disease control rating: rice blast; for Test C disease control rating (100 = 100% disease control, 0 = no disease control): rice seedlings sprayed to run-off, inoculated the following day, rating relative to controls, unmarked compounds (standard test rate)
[2] = 100 = 100% disease control, 0 = no control, unmarked entries (standard test concentration)
[3] = 100 = 100% disease control, 0 = no control relative to controls, unmarked entries (standard test concentration)

Row | Compound | Test E disease control rating (Botrytis cinerea; [2]) [%] | Test D disease control rating (Phytophthora infestans; [2]) [%] | Test B disease control rating (Puccinia recondita; [2]) [%] | Test A disease control rating [1, 3] [%] | Test C disease control rating (Pyricularia oryzae; [2]) [%] | also measured
1 | CC(COc1cc(F)ccc1Cl)NC(=O)C(C#N)C(C)C(C)(C)C (mixture of isomers) [compound 194] | 0 | 0 | 0 | 0 | 100 | –
2 | C[C@H](COc1ccccc1Br)NC(=O)C(C#N)C(C)(C)C (single isomer, unassigned) [8c] | 0 | 0 | 0 | 0 | 100 | –
3 | C[C@H](COc1ccc(Cl)c(F)c1)NC(=O)C(C#N)C(C)(C)C (single isomer, unassigned) [182a] | 0 | 0 | 0 | 0 | 0 | –
4 | C=CCC(C#N)C(=O)NC(C)C(Oc1cc(F)ccc1F)c1ccccc1 (mixture of isomers) [compound 283] | – | – | – | – | – | Test E disease control rating (100 = 100% disease control, 0 = no disease control) (Botrytis cinerea): 0%; Test D disease control rating (100 = 100% disease control, 0 = no disease control) (Phytophthora infestans): 0%; Test B disease control rating (100 = 100% disease control, 0 = no disease control) (Puccinia recondita): 0%; Test A disease control rating (100 = 100% disease control, 0 = no disease control) [1]: 0%; Test C disease control rating (100 = 100% disease control, 0 = no disease control) (Pyricularia oryzae): 99%
5 | CC(COc1ccc(Br)cc1)NC(=O)C(C#N)C(C)(C)C (single isomer, unassigned) [10a] | 0 | 23 | 27 | 0 | 86 | –
6 | CCC1(C(=O)NCCCn2cccc2Cl)C(C)C1(Cl)Cl (centres unmarked) [compound 146] | 0 | 0 | 22 | 0 | 0 | –
7 | CCC1(C(=O)NC(C)COc2ccc(Cl)c(F)c2)C(C)C1(Cl)Cl (centres unmarked) [compound 231] | – | – | – | – | – | Test E disease control rating (100 = 100% disease control, 0 = no disease control) (Botrytis cinerea): 93%; Test D disease control rating (100 = 100% disease control, 0 = no disease control) (Phytophthora infestans): 0%; Test B disease control rating (100 = 100% disease control, 0 = no disease control) (Puccinia recondita): 0%; Test A disease control rating (100 = 100% disease control, 0 = no disease control) [1]: 0%; Test C disease control rating (100 = 100% disease control, 0 = no disease control) (Pyricularia oryzae): 97%
8 | CC(COc1ccccc1C#N)NC(=O)C(C#N)C(C)(C)C (mixture of isomers) [13a] | 0 | 0 | 0 | 34 | 51 | –
9 | CCC1(C(=O)NCC=Cc2ccccc2Cl)C(C)C1(Cl)Cl (centres unmarked) [compound 158] | – | – | – | – | – | Test E disease control rating (Botrytis cinerea; tested at 40 ppm): 0%; Test D disease control rating (Phytophthora infestans; tested at 40 ppm): 0%; Test B disease control rating (Puccinia recondita; tested at 40 ppm): 0%; Test A disease control rating ([1]; tested at 40 ppm): 0%; Test C disease control rating (Pyricularia oryzae; tested at 40 ppm): 52%
10 | CCC1(C(=O)NCCCn2c(Cl)cc(Cl)c2Cl)C(C)C1(Cl)Cl (centres unmarked) [compound 148] | 0 | 0 | 0 | 0 | 74 | –
11 | CCC1(C(=O)NC(C)COc2cccc(I)c2C#N)C(C)C1(Cl)Cl (mixture of isomers) [compound 132] | 0 | 2 | 0 | 0 | 0 | –
12 | CCC1(C(=O)NC(C)COc2cc(F)cc(F)c2C#N)C(C)C1(Cl)Cl (mixture of isomers) [compound 135] | 0 | 2 | 0 | 0 | 53 | –
13 | CC(COc1c(F)ccc(F)c1C#N)NC(=O)C(C#N)C(C)C(C)(C)C (mixture of isomers) [compound 279] | – | – | – | – | – | Test E disease control rating (100 = 100% disease control, 0 = no disease control) (Botrytis cinerea): 0%; Test D disease control rating (100 = 100% disease control, 0 = no disease control) (Phytophthora infestans): 0%; Test B disease control rating (100 = 100% disease control, 0 = no disease control) (Puccinia recondita): 0%; Test A disease control rating (100 = 100% disease control, 0 = no disease control) [1]: 56%; Test C disease control rating (100 = 100% disease control, 0 = no disease control) (Pyricularia oryzae): 0%
14 | CCC1(C(=O)NC(C)COn2c(C#N)cc(Cl)c2C)C(C)C1(Cl)Cl (mixture of isomers) [140b] | 0 | 38 | 28 | 63 | 74 | –
15 | C[C@H](COc1ccc(Cl)cc1F)NC(=O)C(C#N)C(C)(C)C (single isomer, unassigned) [36a] | 0 | 89 | 27 | 0 | 99 | –
16 | CCC1(C(=O)NC(C)COc2cc(OC(F)F)ccc2C#N)C(C)C1(Cl)Cl (mixture of isomers) [compound 256] | – | – | – | – | – | Test E disease control rating (100 = 100% disease control, 0 = no disease control) (Botrytis cinerea): 0%; Test D disease control rating (100 = 100% disease control, 0 = no disease control) (Phytophthora infestans): 0%; Test B disease control rating (100 = 100% disease control, 0 = no disease control) (Puccinia recondita): 0%; Test A disease control rating (100 = 100% disease control, 0 = no disease control) [1]: 56%; Test C disease control rating (100 = 100% disease control, 0 = no disease control) (Pyricularia oryzae): 0%
17 | C[C@H](COc1cccc(C(F)(F)F)c1)NC(=O)C(C#N)C(C)(C)C (single isomer, unassigned) [18a] | 0 | 0 | 0 | 0 | 91 | –
18 | CCC1(C(=O)NC(C)COn2cc(Cl)cc2C#N)C(C)C1(Cl)Cl (mixture of isomers) [compound 138] | 0 | 13 | 0 | 0 | 53 | –
19 | CCC1(C(=O)NC(C)COc2cccc(F)c2)C(C)C1(Cl)Cl (mixture of isomers) [79a] | – | – | – | – | – | Test E disease control rating (Botrytis cinerea; tested at 40 ppm): 0%; Test D disease control rating (Phytophthora infestans; tested at 40 ppm): 0%; Test B disease control rating (Puccinia recondita; tested at 40 ppm): 0%; Test A disease control rating ([1]; tested at 40 ppm): 0%; Test C disease control rating (Pyricularia oryzae; tested at 40 ppm): 53%
20 | Cc1c(Cl)cc(C#N)n1OCC(C)NC(=O)C(C#N)C(C)C(C)(C)C (mixture of isomers) [71b] | – | – | – | – | – | Test E disease control rating (Botrytis cinerea; tested at 100 ppm): 0%; Test D disease control rating (Phytophthora infestans; tested at 100 ppm): 19%; Test B disease control rating (Puccinia recondita; tested at 100 ppm): 0%; Test A disease control rating ([1]; tested at 100 ppm): 0%; Test C disease control rating (Pyricularia oryzae; tested at 100 ppm): 0%
21 | CCC1(C(=O)NC(C)COc2c(Cl)ccc(Cl)c2Cl)C(C)C1(Cl)Cl (centres unmarked) [compound 117] | – | – | – | – | – | Test E disease control rating (Botrytis cinerea; tested at 40 ppm): 0%; Test D disease control rating (Phytophthora infestans; tested at 40 ppm): 0%; Test B disease control rating (Puccinia recondita; tested at 40 ppm): 0%; Test A disease control rating ([1]; tested at 40 ppm): 83%; Test C disease control rating (Pyricularia oryzae; tested at 40 ppm): 74%
22 | Cc1c(Cl)cc(C#N)n1CCC(C)NC(=O)C(C#N)C(C)C(C)(C)C (mixture of isomers) [compound 72] | 0 | 0 | 0 | 0 | 91 | –
